Positions count from the first letter of the chain named.
What was measured:
[1] = target: T1, CDK5 (substrate Rb protein) (Homo sapiens, UniProt Q00535); assay: In vitro CDK5-mediated phosphorylation of Rb protein; format: biochemical
T1 construct: purchased Millipore

human PPARγ-LBD = target: T2, human PPARγ-LBD (Homo sapiens, UniProt P37231); assay: GAL4-PPARγ-LBD luciferase reporter gene assay in HEK293T cells; format: cell-based
T2 construct: expressed in transfected cells; host or cells: HEK293T
T2 sequence (P37231 172-476 isoform P37231-2): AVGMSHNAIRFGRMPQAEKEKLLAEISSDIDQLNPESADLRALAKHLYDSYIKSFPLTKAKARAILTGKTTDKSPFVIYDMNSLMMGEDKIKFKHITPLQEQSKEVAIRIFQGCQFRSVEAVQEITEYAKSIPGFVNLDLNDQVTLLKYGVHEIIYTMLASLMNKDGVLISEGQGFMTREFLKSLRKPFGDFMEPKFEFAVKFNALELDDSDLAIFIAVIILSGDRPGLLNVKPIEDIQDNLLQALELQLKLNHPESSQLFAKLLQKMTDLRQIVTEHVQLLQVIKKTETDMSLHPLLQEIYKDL
Protocol: (§1) The determination of nuclear receptor activation was performed as previously. Briefly, HEK293T cells were transfected with GAL4-pGL4-luc reporter plasmid and pBIND-PPARγ-LBD expression plasmid using Lipofectamine 2000 (Invitrogen) for 6 h before treatment with compounds for 20–24 h. Activity was determined by the Luciferase Assay System (Promega).

PPARγ Y473A = target: T3, PPARγ Y473A (Homo sapiens, UniProt P37231, Y501A); assay: Y473A assay (PPARγ reporter gene assay with Tyr473 of pBIND-PPARγ-LBD mutated into alanine); format: cell-based
T3 construct: expressed in transfected cells; host or cells: HEK293T
T3 sequence (P37231 172-476 isoform P37231-2 Y473A): T2 sequence (P37231 172-476 isoform P37231-2) with Y302A
Protocol: All chemicals were purchased from Sigma-Aldrich (St. Louis, MO, USA). All medium and serum were obtained from Gibco (Invitrogen). The wild-type gene of human PPARγ-LBD (amino acids 172–476) was obtained by PCR and cloned into pBIND vector (Promega). Mutations in pBIND-PPARγ-LBD were created by site-directed mutagenesis using the Fast Mutagenesis System (TransGen Biotech, Beijing, China).
as §1
Supplementary Figure 1: Workflow of virtual screening and the procedure used for selecting hits whose bioactivity was experimentally tested. We developed a virtual screening workflow by Discovery Studio 4.0 software to identify selective agonists of PPARγ. The key steps of this workflow is the two pharmacophore models. One is the antipharmacophore model which excludes compounds whose structure are similar to known full agonists, the other one is the pharmacophore model which identifies selective agonists. Biological assays were performed after virtual steps to further screen leads. […]

[2] = activation relative to rosiglitazone (RGZ)

T1 sequence (Q00535 whole entry): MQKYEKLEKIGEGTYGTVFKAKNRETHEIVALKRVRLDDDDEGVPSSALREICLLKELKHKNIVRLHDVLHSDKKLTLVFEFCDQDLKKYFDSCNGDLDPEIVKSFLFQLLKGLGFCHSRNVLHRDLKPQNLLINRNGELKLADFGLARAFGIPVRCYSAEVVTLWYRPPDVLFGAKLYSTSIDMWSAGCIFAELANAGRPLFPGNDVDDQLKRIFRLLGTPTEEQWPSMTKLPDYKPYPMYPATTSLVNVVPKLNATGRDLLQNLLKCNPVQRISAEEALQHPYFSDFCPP
T1 sequence (Q15078 99-307 partner limits assumed): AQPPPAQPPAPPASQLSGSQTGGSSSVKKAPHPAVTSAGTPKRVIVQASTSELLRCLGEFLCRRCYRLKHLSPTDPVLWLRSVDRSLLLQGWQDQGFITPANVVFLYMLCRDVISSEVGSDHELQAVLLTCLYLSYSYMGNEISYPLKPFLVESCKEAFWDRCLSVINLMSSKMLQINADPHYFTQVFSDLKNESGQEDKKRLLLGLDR

“2-[2-(1, 2-dimethyl-1H-indol-3-yl)-2-oxo-acetylamino]-benzamide [Compound F12016]” was tested, and the “phosphorylation of CDK5 substrate Rb protein” value [1] was “no effect”, the “transcriptional activity of PPARγ” value (human PPARγ-LBD; 30 μM F12016, HEK293T) was “significantly induced transcriptional activity of PPARγ” and the “maximal activation of GAL4-PPARγ” value (human PPARγ-LBD; HEK293T, GAL4-PPARγ-LBD reporter) was “approximately 4 fold”. The EC50 (human PPARγ-LBD; HEK293T, GAL4-PPARγ-LBD reporter, read-out: PPARγ WT EC50 (activation of GAL4-PPARγ)) was 3.24 µM, the “PPARγ WT (RGZ %)” value (human PPARγ-LBD; [2]) was 29.08% and the “concentration antagonizing rosiglitazone-dependent PPARγ activation” value (human PPARγ-LBD; in presence of 1 μM rosiglitazone, reporter assay) was at least 2.5 µM. For the same substance, the EC50 (PPARγ Y473A) was 5.21 µM and the “PPARγ Y473A (RGZ %)” value (PPARγ Y473A; [2]) was 29.12%.

Source: paper PMC4381330, “Identification of a novel selective agonist of PPARγ with no promotion of adipogenesis and less inhibition of osteoblastogenesis” (Scientific Reports, 2015)
